Read-outs that look alike come from different tables or passages of the source.
Experiments:
[1] = target: bsNOS (Bacillus subtilis (strain 168), UniProt O34453); assay: Imidazole displacement, spectral binding constant KS; conditions: KS (bsNOS), Table 5
[2] = target: murine iNOS (Mus musculus (Mouse), UniProt P29477); assay: Oxyhemoglobin NO capture assay with purified NOS; type: biochemical; conditions: for i/n selectivity: ratio Ki iNOS / Ki rat nNOS
Experimental: (§1) The oxyhemoglobin NO assays were performed with purified NOSs using a Biotek Gen5™ microplate reader as previously reported. […] For iNOS, calmodulin and CaCl2 were omitted because iNOS is calcium independent. […] The calculated standard deviations of the assays were less than 10% with all NOSs. […] The selectivity of antagonism of nNOS was determined by calculating the ratios of the Ki values with iNOS or eNOS to those with rat nNOS.

[3] = target: bovine eNOS (Bos taurus (Bovine), UniProt P29473); assay: Oxyhemoglobin NO capture assay with purified NOS; type: biochemical; conditions: Table 9; for Ki: read-out: Ki eNOS; for e/n selectivity: ratio Ki eNOS / Ki rat nNOS
Experimental: as §1

[4] = target: rat nNOS (Rattus norvegicus (Rat), UniProt P29476); assay: Oxyhemoglobin NO capture assay with purified NOS; type: biochemical
Experimental: as §1

Chain of bsNOS (O34453 whole entry): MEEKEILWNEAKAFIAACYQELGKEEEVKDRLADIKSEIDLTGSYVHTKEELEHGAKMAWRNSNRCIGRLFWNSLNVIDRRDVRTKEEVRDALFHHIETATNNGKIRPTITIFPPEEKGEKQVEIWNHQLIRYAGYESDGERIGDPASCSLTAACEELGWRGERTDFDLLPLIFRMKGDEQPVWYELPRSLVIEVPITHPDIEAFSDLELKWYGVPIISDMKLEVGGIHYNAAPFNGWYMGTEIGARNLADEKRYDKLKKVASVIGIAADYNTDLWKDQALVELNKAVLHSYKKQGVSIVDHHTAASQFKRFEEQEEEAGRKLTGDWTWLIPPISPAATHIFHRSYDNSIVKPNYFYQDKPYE

## CNCCN(C)Cc1cccc(Cc2cc(C)cc(N)n2)c1 [Compound 32]
[1]
  Kd: 1.6 ± 0.6 µM

## Cc1cc(N)nc(CCc2cc(C#N)cc(N(C)CCNC(C)C)c2)c1 [Compound 21b]
[2]; Table 9, read-out: Ki iNOS
  Ki: 45.1 µM
[2]; Table 9
  i/n selectivity: 361.5
[3]
  Ki: 39.9 µM
  e/n selectivity: 320.1
[4]; Table 9, read-out: Ki Rat nNOS
  Ki: 0.125 µM

## Cc1cc(N)nc(CCc2cc(F)cc(NCc3cccc(Cl)c3)c2)c1 [Compound 23f, 6-(3-((3-Chlorobenzyl)amino)-5-fluorophenethyl)-4-methylpyridin-2-amine]
[2]; Table 9, read-out: Ki iNOS
  Ki: 9.56 µM
[2]; Table 9
  i/n selectivity: 354.1
[3]
  Ki: 7.08 µM
  e/n selectivity: 262.0
[4]; Table 9, read-out: Ki Rat nNOS
  Ki: 0.027 µM

## Nc1ccc2cc(CCNCc3cccc(F)c3)ccc2n1 [Compound 16]
[1]
  Kd: 95 ± 20 µM

## CCNCCN(C)c1cc(F)cc(CCc2cc(C)cc(N)n2)c1 [Compound 23b, N^1-(3-(2-(6-Amino-4-methylpyridin-2-yl)ethyl)-5-fluorophenyl)-N^2-ethyl-N^1-methylethane-1,2-diamine]
[2]; Table 9, read-out: Ki iNOS
  Ki: 6.38 µM
[2]; Table 9
  i/n selectivity: 199.4
[3]
  Ki: 17.9 µM
  e/n selectivity: 558.4
[4]; Table 9, read-out: Ki Rat nNOS
  Ki: 0.032 µM

## Cc1cc(N)nc(-c2ccc(CNCCCc3cccc(Cl)c3)cc2)c1 [Compound 28, 6-(4-(((3-(3-Chlorophenyl)propyl)amino)methyl)phenyl)-4-methylpyridin-2-amine]
[1]
  Kd: 3.2 ± 0.1 µM

## Cc1cc(N)nc(-c2ccc(CNCc3cccc(F)c3)cc2)c1 [Compound 29, 6-(4-(((3-Fluorobenzyl)amino)methyl)phenyl)-4-methylpyridin-2-amine]
[1]
  Kd: 1.5 ± 0.3 µM

## Cc1cc(N)nc(CCc2cc(F)cc(NCCN(C)C)c2)c1 [Compound 23a, N^1-(3-(2-(6-Amino-4-methylpyridin-2-yl)ethyl)-5-fluorophenyl)-N^2,N^2-dimethylethane-1,2-diamine]
[2]; Table 9, read-out: Ki iNOS
  Ki: 3.31 µM
[2]; Table 9
  i/n selectivity: 47.3
[3]
  Ki: 9.58 µM
  e/n selectivity: 136.9
[4]; Table 9, read-out: Ki Rat nNOS
  Ki: 0.07 µM

## Cc1cc(N)nc(CCc2cc(C#N)cc(NCCc3cccc(F)c3)c2)c1 [Compound 22, 3-(2-(6-Amino-4-methylpyridin-2-yl)ethyl)-5-((3-fluorophenethyl)amino)benzonitrile]
[1]
  Kd: 62 ± 25 µM

## CNCCN(C)c1cccc(Cc2cc(C)cc(N)n2)n1 [Compound 31]
[1]
  Kd: 94 ± 22 µM

## CCN(CCNC)c1cc(F)cc(CCc2cc(C)cc(N)n2)c1 [Compound 23d, N^1-(3-(2-(6-Amino-4-methylpyridin-2-yl)ethyl)-5-fluorophenyl)-N^1-ethyl-N^2-methylethane-1,2-diamine]
[2]; Table 9, read-out: Ki iNOS
  Ki: 5.04 µM
[2]; Table 9
  i/n selectivity: 109.6
[3]
  Ki: 4.29 µM
  e/n selectivity: 93.2
[4]; Table 9, read-out: Ki Rat nNOS
  Ki: 0.046 µM

## Cc1cc(N)nc(COC[C@H](N)[C@H](C)OCc2cc(C)cc(N)n2)c1 [Compound 11]
[1]
  Kd: 1.1 ± 0.1 µM

## Cc1cc(N)nc(CCc2cccc([C@@H](N)Cc3cc(C)cc(N)n3)c2)c1 [Compound 3S, (S)-6-(2-Amino-2-(3-(2-(6-amino-4-methylpyridin-2-yl)ethyl)phenyl)ethyl)-4-methylpyridin-2-amine]
[2]; Table 13, read-out: iNOS Ki
  Ki: 17.7 µM
[4]; Table 13, read-out: nNOS Ki
  Ki: 0.144 µM

## Cc1cc(N)nc(CCc2cc(F)cc(NC3CCNCC3)c2)c1 [Compound 23i, 6-(3-Fluoro-5-(piperidin-4-ylamino)phenethyl)-4-methylpyridin-2-amine]
[2]; Table 9, read-out: Ki iNOS
  Ki: 13.5 µM
[2]; Table 9
  i/n selectivity: 110.9
[3]
  Ki: 4.89 µM
  e/n selectivity: 40.2
[4]; Table 9, read-out: Ki Rat nNOS
  Ki: 0.121 µM

## Cc1cc(N)nc(CCc2cccc([C@H](N)Cc3cc(C)cc(N)n3)c2)c1 [Compound 3R, (R)-6-(2-Amino-2-(3-(2-(6-amino-4-methylpyridin-2-yl)ethyl)phenyl)ethyl)-4-methylpyridin-2-amine]
[2]; Table 13, read-out: iNOS Ki
  Ki: 15.6 µM
[4]; Table 13, read-out: nNOS Ki
  Ki: 0.122 µM

## Nc1ccc2ccc(CNCCCc3cccc(F)c3)cc2n1 [Compound 21]
[1]
  Kd: 3.2 ± 0.1 µM

## Cc1cc(N)nc(CCc2cc(C#N)cc(N(C)CCc3cccc(F)c3)c2)c1 [Compound 21d]
[2]; Table 9, read-out: Ki iNOS
  Ki: 45.3 µM
[2]; Table 9
  i/n selectivity: 33.7
[4]; Table 9, read-out: Ki Rat nNOS
  Ki: 1.8 µM
